According to patent publication US6645983B1, “Pharmaceutical compositions comprising 4-quinolones for treating cancers” (Laboratoire L. Lafon, priority 1999, dated 2003):

Experiments:
[1] = system: J82; assay: MTT test, cytotoxic activity on non-clonogenic cell lines; type: cell-based; conditions: Homo sapiens, 10^−5 M, 72 hours of incubation, control condition = 100%, mean value, read-out: mean optical density as percentage of control, J82
Method: (§1) The principle of the MTT test is based on the mitochondrial reduction, by the metabolically active live cells, of the yellow-colored product MTT (3-(4,5-dimethylthiazol-2-yl)-2,5-diphenyltetrazolium bromide) to a blue-colored product, formazan. The amount of formazan thus obtained is directly proportional to the amount of live cells present in the culture well(s). This amount of formazan is measured by spectrophotometry.
(§2) The cell lines are maintained as a monolayer culture at 37° C. in stoppered culture dishes containing MEM 25 MM HEPES (Minimum Essential Medium) base medium. This medium is suited to the growth of a range of various mammalian diploid or primary cells. This medium is then supplemented with:
(§3) The 12 human cancer cell lines which were used were obtained from the American Type Culture Collection (ATCC, Rockville, Md., USA). These 12 cell lines are:
(§4) J82 (code ATCC: HTB-1) and T24 (code ATCC: HTB-4) which are two bladder cancers,
(§5) Experimentally, 100 μl of a cell suspension containing 20 000 to 50 000 (depending on the cell type used) cells/ml of culture medium are inoculated -in 96-well flat-bottomed multi-well plates and are left to stand in an incubator at 37° C., 5% CO2 and 70% humidity. After an incubation time of 24 hours, the culture medium is replaced with 100 μl of fresh medium containing either the various test compounds—at concentrations varying from 10^−5 to 10^−10 M—or the solvent having served for dissolving the products to be tested (control condition). […] The microplates are thus incubated for 3 hours at 37° C., then centrifuged for 10 minutes at 400 g. The yellowish solution of MTT is removed and the blue formazan crystals formed in the cell region are dissolved in 100 μl or DMSO. The microplates are then shaken for 5 minutes. […] Software incorporated in the spectrophotometer calculates the average optical density values and the standard deviation (SD) and standard error of mean (SEM) values.

[2] = system: T24; assay: as above; type: cell-based; conditions: Homo sapiens, T-24; 10^−5 M, 72 hours of incubation, control condition = 100%, mean value; read-out: mean optical density as percentage of control, T24
Method: as §1, §2, §3, §4, §5

[3] = system: SW1088; assay: as above; type: cell-based; conditions: Homo sapiens, 10^−5 M, 72 hours of incubation, control condition = 100%, mean value, read-out: mean optical density as percentage of control, SW1088
Method: as §1, §2, §3
SW1088 (code ATCC: HTB-12) which is an astro-cytoma,
as §5

[4] = Determination of the maximum tolerated dose (MTD); conditions: B6D2F1/Jico, mouse, in vivo, ip; single intraperitoneal administration, doses 2.5 to 160 mg/kg, survival over 14 days
Method: The evaluation of the maximum tolerated dose was performed on 4- to 6-week-old B6D2F1/Jico mice. The compounds were administered intraperitoneally at increasing doses ranging from 2.5 to 160 mg/kg. The value of the MTD (expressed in mg/kg) is determined from the observation of the survival rate of the animals over a 14-day period after a single administration of the product under consideration. The change in weight of the animals is also monitored during this period. When the MTD value is greater than 160 mg/kg, the MTD value is considered as being 160 mg/kg by default.

[5] = system: A549; assay: MTT test, cytotoxic activity on non-clonogenic cell lines; type: cell-based; conditions: Homo sapiens, 10^−5 M, 72 hours of incubation, control condition = 100%, mean value, read-out: mean optical density as percentage of control, A549
Method: as §1, §2, §3, §5

[6] = system: A-427; assay: as above; type: cell-based; conditions: Homo sapiens, 10^−5 M, 72 hours of incubation, control condition = 100%, mean value, read-out: mean optical density as percentage of control, A-427
Method: as §1, §2, §3, §5

[7] = system: U-87MG; assay: as above; type: cell-based; conditions: Homo sapiens, U-87 MG; 10^−5 M, 72 hours of incubation, control condition = 100%, mean value; read-out: mean optical density as percentage of control, U-87MG
Method: as §1, §2, §3, §5

[8] = system: T-47D; assay: as above; type: cell-based; conditions: Homo sapiens, T47D; 10^−5 M, 72 hours of incubation, control condition = 100%, mean value; read-out: mean optical density as percentage of control, T-47D
Method: as §1, §2, §3, §5

[9] = system: HCT-15; assay: as above; type: cell-based; conditions: Homo sapiens, 10^−5 M, 72 hours of incubation, control condition = 100%, mean value, read-out: mean optical density as percentage of control, HCT-16
Method: as §1, §2, §3, §5

[10] = system: LoVo; assay: as above; type: cell-based; conditions: Homo sapiens, 10^−5 M, 72 hours of incubation, control condition = 100%, mean value, read-out: mean optical density as percentage of control, LoVo
Method: as §1, §2, §3, §5

[11] = system: MCF7; assay: as above; type: cell-based; conditions: Homo sapiens, 10^−5 M, 72 hours of incubation, control condition = 100%, mean value, read-out: mean optical density as percentage of control, MCF7
Method: as §1, §2, §3, §5

[12] = system: U-373MG; assay: as above; type: cell-based; conditions: Homo sapiens, U373 MG; 10^−5 M, 72 hours of incubation, control condition = 100%, mean value; read-out: mean optical density as percentage of control, U-373MG
Method: as §1, §2, §3, §5

[13] = system: PC-3; assay: as above; type: cell-based; conditions: Homo sapiens, 10^−5 M, 72 hours of incubation, control condition = 100%, mean value, read-out: mean optical density as percentage of control, PC-3
Method: as §1, §2, §3, §5

Compound | viability at 10 µM [1] | viability at 10 µM [2] | viability at 10 µM [3] | MTD at 14 day [4] | viability at 10 µM [5] | viability at 10 µM [6] | viability at 10 µM [7] | viability at 10 µM [8] | viability at 10 µM [9] | viability at 10 µM [10] | viability at 10 µM [11] | viability at 10 µM [12] | viability at 10 µM [13]
CCN(CC)C(=O)Cn1cc(-c2ccc(OC)cc2)c(=O)c2c(OC)ccc(OC)c21 [CRL8380, N,N-Diethyl-2-[5,8-dimethoxy-3-(4-methoxyphenyl)-4-oxo-1,4-dihydro-1-quinolinyl]acetamide] | 98.9% | 94.9% | 100% | > 160 mg/kg | 95% | 89.3% | 87.5% | 88.1% | 103% | 108% | 102% | 101% | 102%
CCOC(=O)Cn1cc(-c2ccc(OC)cc2)c(=O)c2c(OC)ccc(OC)c21 [CRL8381, Ethyl 2-[5,8-dimethoxy-3-(4-methoxyphenyl)-4-oxo-1,4-dihydro-1-quinolinyl]acetate] | 90.9% | 83.2% | 55.9% | > 160 mg/kg | 73.8% | 84.2% | 48.1% | 92.6% | 90.5% | 105% | 67.2% | 91.8% | 79.1%
COc1ccc(-c2cn(CCN(C)C)c3c(OC)ccc(OC)c3c2=O)cc1 [CRL8382, N-[3-(Dimethylamino)ethyl]-5,8-dimethoxy-3-(4-methoxyphenyl)-1,4-dihydro-4-quinolinone] | 95.6% | 99.7% | 118% | > 160 mg/kg | 90.4% | 89.2% | 59.2% | 94.7% | 93.1% | 96.7% | 93% | 101% | 100%
COc1ccc(OC)c2c1c(=O)c(-c1ccccc1)cn2C [CRL8383, 5,8-Dimethoxy-1-methyl-3-phenyl-1,4-dihydro-4-quinolinone] | 94.6% | 180% | 75.9% | > 160 mg/kg | 84.1% | 92.1% | 69.5% | 75.3% | 100% | 89.1% | 85% | 83.5% | 88.3%
COc1ccc(-c2c[nH]c3c(OC)ccc(O)c3c2=O)cc1 [CRL8391, 5-Hydroxy-8-methoxy-3-(4-methoxyphenyl)-1,4-dihydro-4-quinolinone] | 99.6% | 101% | 92.5% | > 160 mg/kg | 88.3% | 80.5% | 74% | 99.3% | 80.6% | 87.2% | 97.3% | 93.5% | 80%
COc1ccc(-c2cn(C)c3c(OC)ccc(O)c3c2=O)cc1 [CRL8392, 5-Hydroxy-8-methoxy-3-(4-methoxyphenyl)-1-methyl-1,4-dihydro-4-quinolinone] | 70.6% | 63% | 89.8% | > 160 mg/kg | 77.6% | 49.7% | 82.7% | 68.6% | 77.4% | 79.7% | 74% | 90.2% | 51.6%
CCc1cc(OC)cc2c1c(=O)c(-c1ccc(OC)cc1)cn2C [CRL8393, 5-Ethyl-7-methoxy-3-(4-methoxyphenyl)-1-methyl-1,4-dihydro-4-quinolinone] | 97.9% | 95.3% | 82.8% | > 160 mg/kg | 93% | 23.7% | 89.9% | 68.8% | 41.8% | 84.6% | 89.7% | 74.7% | 87.3%
COc1ccc(-c2cn(C)c3cc(OC)cc(-c4ccccc4)c3c2=O)cc1 [CRL8394, 7-Methoxy-3-(4-methoxyphenyl)-1-methyl-5-phenyl-1,4-dihydro-4-quinolinone] | 93.5% | 92.9% | 68.5% | > 160 mg/kg | 52.9% | 38.9% | 42.2% | 94.3% | 37.7% | 45.1% | 78% | 73.5% | 83.2%
CCOC(=O)CCn1cc(-c2ccc(OC)cc2)c(=O)c2c(OC)cc(OC)cc21 [CRL8404] | 83.8% | 59.8% | 72.1% | > 160 mg/kg | 93.5% | 93.3% | 91.5% | 66.7% | 93.7% | 90.7% | 93.4% | 104% | 99.7%
COc1ccc(-c2cn(C)c3c(OC)ccc(-c4ccccc4)c3c2=O)cc1 [CRL8405, 8-Methoxy-3-(4-methoxyphenyl)-1-methyl-5-phenyl-1,4-dihydro-4-quinolinone] | 93.9% | 57.8% | 40.8% | > 160 mg/kg | 32% | 19.4% | 25.8% | 77.1% | 15.9% | 32.3% | 68.2% | 28.8% | 85.5%
COc1ccc(-c2cn(CCC#N)c3cc(OC)cc(OC)c3c2=O)cc1 [CRL8412, 3-[5,7-Dimethoxy-3-(4-methoxyphenyl)-4-oxo-1,4-dihydro-1-quinolinyl]propanenitrile] | 94.2% | 100% | 105% | > 160 mg/kg | 84.5% | 83.7% | 83.4% | 109% | 83.6% | 77% | 99.1% | 80.8% | 104%
